According to patent publication US8969554B2, “6-acyl-1,2,4-triazine-3,5-dione derivative and herbicides” (Kumiai Chemical Industry Co., Ltd., priority 2010, dated 2015):

Tests used:
Format in all cases: in vivo
Echinochloa crus-galli [1] = experiment: Herbicidal activity by field foliage treatment (Test example 3); set-up: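 index 0 to 10 in 10% steps of herbicidal effect with 10 meaning complete death and 0 below 10%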; settings: 1000 g effective component per hectare, day 14 after the treatment
In short: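 Potted field-soil plants grown 2 weeks in a greenhouse were sprayed over the whole foliage with diluted wettable powder at 1000 L/ha, delivering 1000 g active ingredient per hectare. Herbicidal effect scored by visual criteria 14 days after treatment.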

Indian millet [2] = experiment: Herbicidal activity by field soil treatment (Test example 2); set-up: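 index 0 to 10 in 10% steps of herbicidal effect with 10 meaning complete death and 0 below 10%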; settings: 1000 g effective component per hectare, day 21 after the treatment
In short: (§1)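 A wettable powder formulation, diluted with water, is applied to soil over just-sown seeds at an effective rate of 1000 g/ha. Effects are judged 21 days later after greenhouse growth.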

A. retroflexus [3] = experiment: as above; set-up: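 index 0 to 10 in 10% steps of herbicidal effect with 10 meaning complete death and 0 below 10%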; settings: 1000 g effective component per hectare, day 21 after the treatment
In short: as §1

Indian millet [4] = experiment: Herbicidal activity by field foliage treatment (Test example 3); set-up: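 index 0 to 10 in 10% steps of herbicidal effect with 10 meaning complete death and 0 below 10%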; settings: 1000 g effective component per hectare, day 14 after the treatment
In short: (§2)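 Test plants, grown from seed for two weeks in a greenhouse, are treated by foliar application of a wettable-powder formulation in water at a rate of 1000 g effective component per hectare. Damage is assessed 14 days later.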

A. retroflexus [5] = experiment: as above; set-up: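 index 0 to 10 in 10% steps of herbicidal effect with 10 meaning complete death and 0 below 10%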; settings: 1000 g effective component per hectare, day 14 after the treatment
In short: as §2

Echinochloa oryzicola = experiment: Herbicidal activity by paddy field soil treatment (Test Example 1); set-up: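 index 0 to 10 in 10% steps of herbicidal effect with 10 meaning complete death and 0 below 10%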; settings: 1000 g of effective component per hectare, evaluated on day 21 after the treatment, criteria of Table 72
In short: (§3)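 Flooded-paddy pre-emergence assay at 1000 g a.i./ha, applied to the water surface one day after sowing; visual herbicidal score at day 21 in greenhouse.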

Scirpus juncoides Rocxb. = experiment: as above; set-up: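 index 0 to 10 in 10% steps of herbicidal effect with 10 meaning complete death and 0 below 10%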; settings: applied on water surface, 1000 g of effective component per hectare, day 21 after the treatment
In short: as §3

Monochoria vaginalis = experiment: as above; set-up: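 index 0 to 10 in 10% steps of herbicidal effect with 10 meaning complete death and 0 below 10%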; settings: 1000 g of effective component per hectare, evaluated on day 21 after the treatment, criteria of Table 72
In short: as §3

Setaria viridis = experiment: Herbicidal activity by field foliage treatment (Test example 3); settings: 1000 g effective component per hectare, day 14 after the treatment;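 further: index 0 to 10 in 10% steps of herbicidal effect with 10 meaning complete death and 0 below 10%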
Procedure: Test example 3 Test for Determining Herbicidal Activity by Field Foliage Treatment A 80 cm^2 wide plastic pot was filled with a field soil and seeds of each of Indian millet and A. retroflexus were sowed and then incubated for 2 weeks in a green house. The wettable powder produced with reference to the Formulation example 1 was diluted water, and applied from the air to entire body of the plant as foliage treatment by using a small sprayer in an amount of 1000 liters per hectare so that the effective component is 1000 g per hectare. After that, the plants were cultivated in a greenhouse, and on day 14 after the treatment, evaluation was made by the criteria described in Table 72 for determining the herbicidal effects.

Echinochloa crus-galli [6] = experiment: Herbicidal activity by field soil treatment (Test example 2); set-up: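 index 0 to 10 in 10% steps of herbicidal effect with 10 meaning complete death and 0 below 10%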; settings: 1000 g effective component per hectare, day 21 after the treatment
In short: as §1

## Cc1cc(Cl)cc(-n2c(=O)c(C(=O)C3=C(O)CCCC3=O)nn(C)c2=O)c1 [I-126]
Echinochloa crus-galli [1]
  herbicidal effect index, Echinochloa crus-galli: 9
Indian millet [2]
  herbicidal effect index, Abutilon theophrasti: 10
A. retroflexus [3]
  herbicidal effect index, Amaranthus retroflexus: 10
Indian millet [4]
  herbicidal effect index, Abutilon theophrasti: 9
A. retroflexus [5]
  herbicidal effect index, Amaranthus retroflexus: 10
Echinochloa oryzicola
  Herbicidal effects index number, Echinochloa oryzicola: 10
Scirpus juncoides Rocxb.
  herbicidal effect index, S. juncoides Rocxb.: 10
Monochoria vaginalis
  Herbicidal effects index number, Monochoria vaginalis: 10
Setaria viridis
  herbicidal effect index, Setaria viridis: 7

## Cn1nc(C(=O)C2=C(O)C(C)(C)CCC2=O)c(=O)n(-c2ccccc2)c1=O [VI-5]
Echinochloa crus-galli [1]
  herbicidal effect index, Echinochloa crus-galli: 10
Echinochloa crus-galli [6]
  herbicidal effect index, Echinochloa crus-galli: 8
Indian millet [2]
  herbicidal effect index, Abutilon theophrasti: 10
A. retroflexus [3]
  herbicidal effect index, Amaranthus retroflexus: 10
Indian millet [4]
  herbicidal effect index, Abutilon theophrasti: 10
A. retroflexus [5]
  herbicidal effect index, Amaranthus retroflexus: 10
Echinochloa oryzicola
  Herbicidal effects index number, Echinochloa oryzicola: 10
Scirpus juncoides Rocxb.
  herbicidal effect index, S. juncoides Rocxb.: 10
Monochoria vaginalis
  Herbicidal effects index number, Monochoria vaginalis: 10
Setaria viridis
  herbicidal effect index, Setaria viridis: 10

## Cn1nc(C(=O)C2=C(O)CCCC2=O)c(=O)n(CC(=O)C(C)(C)C)c1=O [I-468]
Echinochloa crus-galli [1]
  herbicidal effect index, Echinochloa crus-galli: 9
A. retroflexus [3]
  herbicidal effect index, Amaranthus retroflexus: 7
Indian millet [4]
  herbicidal effect index, Abutilon theophrasti: 10
A. retroflexus [5]
  herbicidal effect index, Amaranthus retroflexus: 10
Echinochloa oryzicola
  Herbicidal effects index number, Echinochloa oryzicola: 10
Scirpus juncoides Rocxb.
  herbicidal effect index, S. juncoides Rocxb.: 10
Monochoria vaginalis
  Herbicidal effects index number, Monochoria vaginalis: 10
Setaria viridis
  herbicidal effect index, Setaria viridis: 9

## Cn1nc(C(=O)C2=C(O)CCCC2=O)c(=O)n(-c2c(F)c(F)cc(F)c2F)c1=O [I-469]
Echinochloa crus-galli [1]
  herbicidal effect index, Echinochloa crus-galli: 10
Indian millet [4]
  herbicidal effect index, Abutilon theophrasti: 10
A. retroflexus [5]
  herbicidal effect index, Amaranthus retroflexus: 10
Echinochloa oryzicola
  Herbicidal effects index number, Echinochloa oryzicola: 10
Scirpus juncoides Rocxb.
  herbicidal effect index, S. juncoides Rocxb.: 10
Monochoria vaginalis
  Herbicidal effects index number, Monochoria vaginalis: 10
Setaria viridis
  herbicidal effect index, Setaria viridis: 10

## Cn1nc(C(=O)C2=C(O)C(C)(C)C(=O)C(C)(C)C2=O)c(=O)n(-c2ccccc2)c1=O [VI-1]
Echinochloa crus-galli [1]
  herbicidal effect index, Echinochloa crus-galli: 10
Indian millet [2]
  herbicidal effect index, Abutilon theophrasti: 10
A. retroflexus [3]
  herbicidal effect index, Amaranthus retroflexus: 10
Indian millet [4]
  herbicidal effect index, Abutilon theophrasti: 10
A. retroflexus [5]
  herbicidal effect index, Amaranthus retroflexus: 10
Echinochloa oryzicola
  Herbicidal effects index number, Echinochloa oryzicola: 10
Scirpus juncoides Rocxb.
  herbicidal effect index, S. juncoides Rocxb.: 10
Monochoria vaginalis
  Herbicidal effects index number, Monochoria vaginalis: 10
Setaria viridis
  herbicidal effect index, Setaria viridis: 10

## Cn1nc(C(=O)C2=C(O)CCCC2=O)c(=O)n(-c2cc(Cl)c(Cl)c(Cl)c2)c1=O [I-465]
Echinochloa crus-galli [1]
  herbicidal effect index, Echinochloa crus-galli: 8
Indian millet [2]
  herbicidal effect index, Abutilon theophrasti: 10
A. retroflexus [3]
  herbicidal effect index, Amaranthus retroflexus: 10
Indian millet [4]
  herbicidal effect index, Abutilon theophrasti: 10
A. retroflexus [5]
  herbicidal effect index, Amaranthus retroflexus: 10
Echinochloa oryzicola
  Herbicidal effects index number, Echinochloa oryzicola: 10
Scirpus juncoides Rocxb.
  herbicidal effect index, S. juncoides Rocxb.: 10
Monochoria vaginalis
  Herbicidal effects index number, Monochoria vaginalis: 10
Setaria viridis
  herbicidal effect index, Setaria viridis: 10

## Cn1nc(C(=O)C2=C(O)CCCC2=O)c(=O)n(-c2ccccc2)c1=S [I-263]
Echinochloa crus-galli [1]
  herbicidal effect index, Echinochloa crus-galli: 9
Indian millet [2]
  herbicidal effect index, Abutilon theophrasti: 8
A. retroflexus [3]
  herbicidal effect index, Amaranthus retroflexus: 10
Indian millet [4]
  herbicidal effect index, Abutilon theophrasti: 10
A. retroflexus [5]
  herbicidal effect index, Amaranthus retroflexus: 10
Echinochloa oryzicola
  Herbicidal effects index number, Echinochloa oryzicola: 10
Scirpus juncoides Rocxb.
  herbicidal effect index, S. juncoides Rocxb.: 10
Monochoria vaginalis
  Herbicidal effects index number, Monochoria vaginalis: 10
Setaria viridis
  herbicidal effect index, Setaria viridis: 9

## Cn1nc(C(=O)O)c(=O)n(-c2cc(Cl)c(Cl)c(Cl)c2)c1=O [V-358]
Echinochloa crus-galli [1]
  herbicidal effect index, Echinochloa crus-galli: 8
Indian millet [2]
  herbicidal effect index, Abutilon theophrasti: 10
A. retroflexus [3]
  herbicidal effect index, Amaranthus retroflexus: 10
Indian millet [4]
  herbicidal effect index, Abutilon theophrasti: 10
A. retroflexus [5]
  herbicidal effect index, Amaranthus retroflexus: 10
Echinochloa oryzicola
  Herbicidal effects index number, Echinochloa oryzicola: 10
Scirpus juncoides Rocxb.
  herbicidal effect index, S. juncoides Rocxb.: 10
Monochoria vaginalis
  Herbicidal effects index number, Monochoria vaginalis: 10
Setaria viridis
  herbicidal effect index, Setaria viridis: 10

## Cn1nc(C(=O)C2=C(O)CCCC2=O)c(=O)n(-c2cc(C(F)(F)F)cc(C(F)(F)F)c2)c1=O [I-470]
Echinochloa crus-galli [1]
  herbicidal effect index, Echinochloa crus-galli: 8
Indian millet [2]
  herbicidal effect index, Abutilon theophrasti: 7
A. retroflexus [3]
  herbicidal effect index, Amaranthus retroflexus: 8
Indian millet [4]
  herbicidal effect index, Abutilon theophrasti: 10
A. retroflexus [5]
  herbicidal effect index, Amaranthus retroflexus: 10
Echinochloa oryzicola
  Herbicidal effects index number, Echinochloa oryzicola: 10
Scirpus juncoides Rocxb.
  herbicidal effect index, S. juncoides Rocxb.: 10
Monochoria vaginalis
  Herbicidal effects index number, Monochoria vaginalis: 10
Setaria viridis
  herbicidal effect index, Setaria viridis: 9

## Cn1nc(C(=O)O)c(=O)n(-c2c(F)c(F)cc(F)c2F)c1=O [V-363]
Echinochloa crus-galli [1]
  herbicidal effect index, Echinochloa crus-galli: 10
Indian millet [4]
  herbicidal effect index, Abutilon theophrasti: 10
A. retroflexus [5]
  herbicidal effect index, Amaranthus retroflexus: 10
Echinochloa oryzicola
  Herbicidal effects index number, Echinochloa oryzicola: 10
Scirpus juncoides Rocxb.
  herbicidal effect index, S. juncoides Rocxb.: 10
Monochoria vaginalis
  Herbicidal effects index number, Monochoria vaginalis: 10
Setaria viridis
  herbicidal effect index, Setaria viridis: 10

## Cn1nc(C(=O)O)c(=O)n(-c2cc(C(F)(F)F)cc(C(F)(F)F)c2)c1=O [V-364]
Echinochloa crus-galli [1]
  herbicidal effect index, Echinochloa crus-galli: 8
Indian millet [2]
  herbicidal effect index, Abutilon theophrasti: 7
A. retroflexus [3]
  herbicidal effect index, Amaranthus retroflexus: 8
Indian millet [4]
  herbicidal effect index, Abutilon theophrasti: 10
A. retroflexus [5]
  herbicidal effect index, Amaranthus retroflexus: 10
Echinochloa oryzicola
  Herbicidal effects index number, Echinochloa oryzicola: 10
Scirpus juncoides Rocxb.
  herbicidal effect index, S. juncoides Rocxb.: 10
Monochoria vaginalis
  Herbicidal effects index number, Monochoria vaginalis: 10
Setaria viridis
  herbicidal effect index, Setaria viridis: 9

## COc1c(F)cc(-n2c(=O)c(C(=O)C3=C(O)CCCC3=O)nn(C)c2=O)cc1F [Compound I-167]
Echinochloa crus-galli [1]
  herbicidal effect index, Echinochloa crus-galli: 10
Echinochloa crus-galli [6]
  herbicidal effect index, Echinochloa crus-galli: 8
Indian millet [2]
  herbicidal effect index, Abutilon theophrasti: 10
A. retroflexus [3]
  herbicidal effect index, Amaranthus retroflexus: 10
Indian millet [4]
  herbicidal effect index, Abutilon theophrasti: 10
A. retroflexus [5]
  herbicidal effect index, Amaranthus retroflexus: 10
Setaria viridis
  herbicidal effect index, Setaria viridis: 8

## O=C1CCCC(O)=C1C(=O)c1nn(C(F)F)c(=O)n(-c2ccccc2)c1=O [I-261]
Indian millet [2]
  herbicidal effect index, Abutilon theophrasti: 10
Indian millet [4]
  herbicidal effect index, Abutilon theophrasti: 10
A. retroflexus [5]
  herbicidal effect index, Amaranthus retroflexus: 10
Echinochloa oryzicola
  Herbicidal effects index number, Echinochloa oryzicola: 8
Scirpus juncoides Rocxb.
  herbicidal effect index, S. juncoides Rocxb.: 8
Monochoria vaginalis
  Herbicidal effects index number, Monochoria vaginalis: 10
Setaria viridis
  herbicidal effect index, Setaria viridis: 7

## Cn1nc(C(=O)C2=C(O)CC(C)(C)CC2=O)c(=O)n(-c2ccccc2)c1=O [VI-6]
Echinochloa crus-galli [1]
  herbicidal effect index, Echinochloa crus-galli: 8
Indian millet [2]
  herbicidal effect index, Abutilon theophrasti: 9
A. retroflexus [3]
  herbicidal effect index, Amaranthus retroflexus: 10
Indian millet [4]
  herbicidal effect index, Abutilon theophrasti: 10
A. retroflexus [5]
  herbicidal effect index, Amaranthus retroflexus: 10
Echinochloa oryzicola
  Herbicidal effects index number, Echinochloa oryzicola: 10
Scirpus juncoides Rocxb.
  herbicidal effect index, S. juncoides Rocxb.: 10
Monochoria vaginalis
  Herbicidal effects index number, Monochoria vaginalis: 10
Setaria viridis
  herbicidal effect index, Setaria viridis: 10

## C#Cc1ccc(-n2c(=O)c(C(=O)C3=C(O)CCCC3=O)nn(C)c2=O)nc1 [I-463]
Echinochloa crus-galli [1]
  herbicidal effect index, Echinochloa crus-galli: 7
Indian millet [2]
  herbicidal effect index, Abutilon theophrasti: 10
A. retroflexus [3]
  herbicidal effect index, Amaranthus retroflexus: 7
Indian millet [4]
  herbicidal effect index, Abutilon theophrasti: 9
A. retroflexus [5]
  herbicidal effect index, Amaranthus retroflexus: 10
Echinochloa oryzicola
  Herbicidal effects index number, Echinochloa oryzicola: 10
Scirpus juncoides Rocxb.
  herbicidal effect index, S. juncoides Rocxb.: 10
Monochoria vaginalis
  Herbicidal effects index number, Monochoria vaginalis: 10
Setaria viridis
  herbicidal effect index, Setaria viridis: 7

## CSCn1c(=O)c(C(=O)C2=C(O)CCCC2=O)nn(C)c1=O [I-43]
Echinochloa crus-galli [1]
  herbicidal effect index, Echinochloa crus-galli: 8
Echinochloa crus-galli [6]
  herbicidal effect index, Echinochloa crus-galli: 10
A. retroflexus [3]
  herbicidal effect index, Amaranthus retroflexus: 10
Indian millet [4]
  herbicidal effect index, Abutilon theophrasti: 9
A. retroflexus [5]
  herbicidal effect index, Amaranthus retroflexus: 10
Echinochloa oryzicola
  Herbicidal effects index number, Echinochloa oryzicola: 10
Scirpus juncoides Rocxb.
  herbicidal effect index, S. juncoides Rocxb.: 10
Monochoria vaginalis
  Herbicidal effects index number, Monochoria vaginalis: 10
Setaria viridis
  herbicidal effect index, Setaria viridis: 8

## Cn1nc(C(=O)O)c(=O)n(CC(=O)C(C)(C)C)c1=O [V-362]
Echinochloa crus-galli [1]
  herbicidal effect index, Echinochloa crus-galli: 9
A. retroflexus [3]
  herbicidal effect index, Amaranthus retroflexus: 7
Indian millet [4]
  herbicidal effect index, Abutilon theophrasti: 10
A. retroflexus [5]
  herbicidal effect index, Amaranthus retroflexus: 10
Echinochloa oryzicola
  Herbicidal effects index number, Echinochloa oryzicola: 10
Scirpus juncoides Rocxb.
  herbicidal effect index, S. juncoides Rocxb.: 10
Monochoria vaginalis
  Herbicidal effects index number, Monochoria vaginalis: 10
Setaria viridis
  herbicidal effect index, Setaria viridis: 9

## COc1cc(-n2c(=O)c(C(=O)C3=C(O)C(C)(C)C(=O)C(C)(C)C3=O)nn(C)c2=O)cc(OC)c1OC [VI-97]
Echinochloa crus-galli [1]
  herbicidal effect index, Echinochloa crus-galli: 7
Indian millet [4]
  herbicidal effect index, Abutilon theophrasti: 10
A. retroflexus [5]
  herbicidal effect index, Amaranthus retroflexus: 10
Echinochloa oryzicola
  Herbicidal effects index number, Echinochloa oryzicola: 10
Scirpus juncoides Rocxb.
  herbicidal effect index, S. juncoides Rocxb.: 10
Monochoria vaginalis
  Herbicidal effects index number, Monochoria vaginalis: 10
Setaria viridis
  herbicidal effect index, Setaria viridis: 10
